Earlier results as cited in US8968799B2, “Time delayed release mechanism for energizing composition and method of use” (Rise-N-Shine L.L.C., priority 2006, dated 2015).

What was measured:
[1] = particularly as methylcobalamin; healthy men and women
[2] = cold, fatigue, sleep deprivation

SMILES: C/C1=C2/[N-][C@H]([C@H](CC(N)=O)[C@@]2(C)CCC(=O)NC[C@@H](C)OP(=O)([O-])O[C@H]2[C@@H](O)[C@@H](n3cnc4cc(C)c(C)cc43)O[C@@H]2CO)[C@]2(C)N=C(/C(C)=C3N=C(/C=C4N=C1[C@@H](CCC(N)=O)C\4(C)C)[C@@H](CCC(N)=O)[C@]\3(C)CC(N)=O)[C@@H](CCC(N)=O)[C@]2(C)CC(N)=O.[CH3-].[Co+3] [vitamin B12, methylcobalamin]
- effect on sleep time, sleep quality and daytime alertness [1]: decrease sleep time yet improve sleep quality and daytime alertness

SMILES: N[C@@H](Cc1ccc(O)cc1)C(=O)O [Tyrosine, 4-hydroxyphenylalanine]
- effect on cognitive performance and mood under acute stress [2]: appears to prevent the substantial decline
